Measured values taken from publication PMC8752738, “A propolis-derived small molecule ameliorates metabolic syndrome in obese mice by targeting the CREB/CRTC2 transcriptional complex” (Nature Communications, 2022).
Several values for one entry are separate records, joined by “and”; a condition that tells them apart may be missing. Identical values can stand only once.

Biological target: T1, GST-CREB / FLAG-CRTC2 interaction (Homo sapiens, UniProt P16220)
T1 construct: made in house; host or cells: GST-CREB beads (pGEX5X-1); FLAG-CRTC2 expressed in HEK293T cells
T1 sequence (P16220 whole entry): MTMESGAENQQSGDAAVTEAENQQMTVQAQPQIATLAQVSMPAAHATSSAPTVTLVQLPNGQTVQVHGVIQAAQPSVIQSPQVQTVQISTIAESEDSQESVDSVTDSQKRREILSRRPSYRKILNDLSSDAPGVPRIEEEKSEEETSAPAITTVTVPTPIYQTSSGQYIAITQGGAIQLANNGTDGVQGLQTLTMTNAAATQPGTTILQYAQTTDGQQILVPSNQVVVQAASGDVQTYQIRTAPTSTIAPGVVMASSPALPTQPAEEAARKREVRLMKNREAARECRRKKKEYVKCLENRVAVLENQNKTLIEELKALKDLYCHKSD
Assay: GST-pull-down of FLAG-CRTC2 from HEK293T lysates by GST-CREB beads
Assay type: biochemical
Source text: To further confirm whether APC disrupts the protein association between CREB and CRTC2, we performed GST-pull-down assays in which GST-CREB beads were used to immunoprecipitated FLAG-tagged CRTC2 proteins that were expressed in HEK293T cells. As expected, APC attenuated the amounts of FLAG-CRTC2 proteins recovered by GST-CREB beads from HEK293T cell lysates (Fig. 2a). […] In contrast, APC had little effect on the association of GST-CREB with HA-P300 (Supplementary Fig. 2a), as well as the interaction between endogenous CRTC2 and CBP proteins (Fig. 2c). […]
Fig. 2 APC blocks interaction between CREB and CRTC2. a Analysis of GST-CREB immunoprecipitated with overexpressed FLAG-CRTC2 from the lysates of HEK293T cells. […] Data are represented as mean ± SEM); P values were determined by one-way ANOVA followed Dunnett’s multiple comparisons test. b Analysis of HA-CRTC2 immunoprecipitated with endogenous CREB from primary hepatocyte lysates. […] Data are represented as mean ± SEM; P values were determined by one-way ANOVA followed Dunnett’s multiple comparisons test. c Immunoblotting analysis of endogenous CREB, CRTC2, and CBP interaction by an anti-CRTC2 antibody from the lysate of primary hepatocytes. […] Data are represented as mean ± SEM; P values were determined by one-way ANOVA followed Dunnett’s multiple comparisons test (compared with APC = 0). […]

CC(C)=CCc1cc(C=CC(=O)O)cc(CC=C(C)C)c1O [APC, 3,5-diprenyl-4-hydroxycinnamic acid]
Pull down FLAG/GST band dentsity (FLAG in IP fraction) (Fig 2a source data, replicates, GST-CREB beads +, FLAG-CRTC2 +, APC + (10 μM)): 1.359 FOLDS and 1.3596 FOLDS and 1.382 FOLDS
FLAG-CRTC2 recovered by GST-CREB beads (HEK293T lysates, APC 10 μM): attenuated
